Assay: xn = mol fraction of the nth substance listed
Settings: Gas, isochoric method

C=C(F)C(F)(F)F [2,3,3,3-tetrafluoro-1-propene] + CCC
Settings | specific volume [m3/kg]
268.15 K, 333 kPa, x2 = 0.709 | 0.095
273.15 K, 340.4 kPa, x2 = 0.709 | 0.095
278.15 K, 347.7 kPa, x2 = 0.709 | 0.095
278.15 K, 366.9 kPa, x2 = 0.505 | 0.072
283.15 K, 354.8 kPa, x2 = 0.709 | 0.095
283.15 K, 374.9 kPa, x2 = 0.505 | 0.072
288.13 K, 614.2 kPa, x2 = 0.611 | 0.047
288.15 K, 382.8 kPa, x2 = 0.505 | 0.072
288.16 K, 362 kPa, x2 = 0.709 | 0.095
288.16 K, 449 kPa, x2 = 0.23 | 0.048
293.15 K, 369.3 kPa, x2 = 0.709 | 0.095
293.15 K, 390.7 kPa, x2 = 0.505 | 0.072
293.15 K, 459.2 kPa, x2 = 0.23 | 0.048
293.17 K, 628.3 kPa, x2 = 0.611 | 0.047
298.15 K, 376.6 kPa, x2 = 0.709 | 0.095
298.15 K, 398.5 kPa, x2 = 0.505 | 0.072
298.15 K, 470.2 kPa, x2 = 0.23 | 0.048
298.15 K, 642.2 kPa, x2 = 0.611 | 0.047
298.15 K, 807.3 kPa, x2 = 0.839 | 0.047
303.15 K, 383.9 kPa, x2 = 0.709 | 0.095
303.15 K, 406.7 kPa, x2 = 0.505 | 0.072
303.15 K, 479.7 kPa, x2 = 0.23 | 0.048
303.15 K, 656.1 kPa, x2 = 0.611 | 0.047
303.15 K, 825.7 kPa, x2 = 0.839 | 0.047
308.15 K, 391 kPa, x2 = 0.709 | 0.095
308.15 K, 414.4 kPa, x2 = 0.505 | 0.072
308.15 K, 489.4 kPa, x2 = 0.23 | 0.048
308.15 K, 669.8 kPa, x2 = 0.611 | 0.047
308.15 K, 844 kPa, x2 = 0.839 | 0.047
313.15 K, 398.2 kPa, x2 = 0.709 | 0.095
313.15 K, 422.1 kPa, x2 = 0.505 | 0.072
313.15 K, 499.1 kPa, x2 = 0.23 | 0.048
313.15 K, 683.5 kPa, x2 = 0.611 | 0.047
313.15 K, 862.2 kPa, x2 = 0.839 | 0.047
318.15 K, 405.3 kPa, x2 = 0.709 | 0.095
318.15 K, 429.8 kPa, x2 = 0.505 | 0.072
318.15 K, 508.7 kPa, x2 = 0.23 | 0.048
318.15 K, 697.1 kPa, x2 = 0.611 | 0.047
318.15 K, 880.3 kPa, x2 = 0.839 | 0.047
323.15 K, 412.4 kPa, x2 = 0.709 | 0.095
323.15 K, 437.5 kPa, x2 = 0.505 | 0.072
323.15 K, 518.3 kPa, x2 = 0.23 | 0.048
323.15 K, 710.9 kPa, x2 = 0.611 | 0.047
323.15 K, 898.3 kPa, x2 = 0.839 | 0.047
328.15 K, 419.5 kPa, x2 = 0.709 | 0.095
328.15 K, 445.3 kPa, x2 = 0.505 | 0.072
328.15 K, 527.8 kPa, x2 = 0.23 | 0.048
328.15 K, 724.4 kPa, x2 = 0.611 | 0.047
328.15 K, 916.2 kPa, x2 = 0.839 | 0.047
333.15 K, 426.6 kPa, x2 = 0.709 | 0.095
333.15 K, 452.9 kPa, x2 = 0.505 | 0.072
333.15 K, 537.3 kPa, x2 = 0.23 | 0.048
333.15 K, 737.9 kPa, x2 = 0.611 | 0.047
333.15 K, 934 kPa, x2 = 0.839 | 0.047
338.15 K, 433.8 kPa, x2 = 0.709 | 0.095
338.15 K, 460.5 kPa, x2 = 0.505 | 0.072
338.15 K, 546.7 kPa, x2 = 0.23 | 0.048
338.15 K, 751.3 kPa, x2 = 0.611 | 0.047
338.15 K, 951.8 kPa, x2 = 0.839 | 0.047
343.15 K, 440.8 kPa, x2 = 0.709 | 0.095
343.15 K, 468.1 kPa, x2 = 0.505 | 0.072
343.15 K, 556.2 kPa, x2 = 0.23 | 0.048
343.15 K, 764.6 kPa, x2 = 0.611 | 0.047
343.15 K, 969.5 kPa, x2 = 0.839 | 0.047
348.14 K, 778 kPa, x2 = 0.611 | 0.047
348.15 K, 447.9 kPa, x2 = 0.709 | 0.095
348.15 K, 475.6 kPa, x2 = 0.505 | 0.072
348.15 K, 565.8 kPa, x2 = 0.23 | 0.048
348.15 K, 987.1 kPa, x2 = 0.839 | 0.047
353.15 K, 454.9 kPa, x2 = 0.709 | 0.095
353.15 K, 483.2 kPa, x2 = 0.505 | 0.072
353.15 K, 575.1 kPa, x2 = 0.23 | 0.048
353.15 K, 791.3 kPa, x2 = 0.611 | 0.047
353.15 K, 1004.6 kPa, x2 = 0.839 | 0.047
358.15 K, 462 kPa, x2 = 0.709 | 0.095
358.15 K, 490.8 kPa, x2 = 0.505 | 0.072
358.15 K, 584.5 kPa, x2 = 0.23 | 0.048
358.15 K, 804.5 kPa, x2 = 0.611 | 0.047
358.15 K, 1022.2 kPa, x2 = 0.839 | 0.047
363.15 K, 469 kPa, x2 = 0.709 | 0.095
363.15 K, 498.3 kPa, x2 = 0.505 | 0.072
363.15 K, 593.8 kPa, x2 = 0.23 | 0.048
363.15 K, 817.7 kPa, x2 = 0.611 | 0.047
363.16 K, 1039.6 kPa, x2 = 0.839 | 0.047

F/C=C(\F)C(F)(F)F [(Z)-1,2,3,3,3-pentafluoro-1-propene] + CCC
Settings | specific volume [m3/kg]
303.15 K, 459.8 kPa, x2 = 0.855 | 0.09
303.15 K, 722.5 kPa, x2 = 0.593 | 0.038
308.15 K, 412.6 kPa, x2 = 0.516 | 0.067
308.15 K, 468.5 kPa, x2 = 0.855 | 0.09
308.15 K, 491.5 kPa, x2 = 0.225 | 0.042
308.15 K, 738.6 kPa, x2 = 0.593 | 0.038
308.15 K, 946.2 kPa, x2 = 0.69 | 0.032
313.15 K, 420.3 kPa, x2 = 0.516 | 0.067
313.15 K, 477.3 kPa, x2 = 0.855 | 0.09
313.15 K, 501.4 kPa, x2 = 0.225 | 0.042
313.15 K, 754.6 kPa, x2 = 0.593 | 0.038
313.15 K, 968.3 kPa, x2 = 0.69 | 0.032
318.15 K, 428 kPa, x2 = 0.516 | 0.067
318.15 K, 486 kPa, x2 = 0.855 | 0.09
318.15 K, 511.5 kPa, x2 = 0.225 | 0.042
318.15 K, 770.3 kPa, x2 = 0.593 | 0.038
318.15 K, 990.1 kPa, x2 = 0.69 | 0.032
323.15 K, 435.7 kPa, x2 = 0.516 | 0.067
323.15 K, 494.7 kPa, x2 = 0.855 | 0.09
323.15 K, 521.2 kPa, x2 = 0.225 | 0.042
323.15 K, 786.1 kPa, x2 = 0.593 | 0.038
323.15 K, 1011.5 kPa, x2 = 0.69 | 0.032
328.15 K, 443.4 kPa, x2 = 0.516 | 0.067
328.15 K, 503.4 kPa, x2 = 0.855 | 0.09
328.15 K, 531.1 kPa, x2 = 0.225 | 0.042
328.15 K, 801.7 kPa, x2 = 0.593 | 0.038
328.15 K, 1033 kPa, x2 = 0.69 | 0.032
333.15 K, 451 kPa, x2 = 0.516 | 0.067
333.15 K, 512.1 kPa, x2 = 0.855 | 0.09
333.15 K, 540.8 kPa, x2 = 0.225 | 0.042
333.15 K, 817.3 kPa, x2 = 0.593 | 0.038
333.15 K, 1054.4 kPa, x2 = 0.69 | 0.032
338.15 K, 458.7 kPa, x2 = 0.516 | 0.067
338.15 K, 520.9 kPa, x2 = 0.855 | 0.09
338.15 K, 550.6 kPa, x2 = 0.225 | 0.042
338.15 K, 832.7 kPa, x2 = 0.593 | 0.038
338.15 K, 1075.7 kPa, x2 = 0.69 | 0.032
343.15 K, 466.6 kPa, x2 = 0.516 | 0.067
343.15 K, 529.5 kPa, x2 = 0.855 | 0.09
343.15 K, 560.3 kPa, x2 = 0.225 | 0.042
343.15 K, 848.1 kPa, x2 = 0.593 | 0.038
343.15 K, 1096.9 kPa, x2 = 0.69 | 0.032
348.15 K, 474.1 kPa, x2 = 0.516 | 0.067
348.15 K, 538.1 kPa, x2 = 0.855 | 0.09
348.15 K, 570 kPa, x2 = 0.225 | 0.042
348.15 K, 863.4 kPa, x2 = 0.593 | 0.038
348.15 K, 1118 kPa, x2 = 0.69 | 0.032
353.15 K, 481.7 kPa, x2 = 0.516 | 0.067
353.15 K, 546.7 kPa, x2 = 0.855 | 0.09
353.15 K, 580.1 kPa, x2 = 0.225 | 0.042
353.15 K, 878.7 kPa, x2 = 0.593 | 0.038
353.15 K, 1139.2 kPa, x2 = 0.69 | 0.032
358.15 K, 489.3 kPa, x2 = 0.516 | 0.067
358.15 K, 555.3 kPa, x2 = 0.855 | 0.09
358.15 K, 589.7 kPa, x2 = 0.225 | 0.042
358.15 K, 893.9 kPa, x2 = 0.593 | 0.038
358.15 K, 1160 kPa, x2 = 0.69 | 0.032
363.15 K, 496.8 kPa, x2 = 0.516 | 0.067
363.15 K, 563.9 kPa, x2 = 0.855 | 0.09
363.15 K, 909 kPa, x2 = 0.593 | 0.038
363.15 K, 1180.9 kPa, x2 = 0.69 | 0.032
363.16 K, 599.3 kPa, x2 = 0.225 | 0.042

From the NIST ThermoML archive (doi:10.1021/acs.jced.6b00396)
